Source: patent US20060282906A1, “Non-transgenic rodent model of Alzheimer's disease” (priority 2005, published 2006)
Marks after values point to notes of the source that are not given here.

Key:
rats = assay: Barnes circular platform test; type: in vivo, rat
Procedure: All rats were anesthetized using 40 mg/kg of pentobarbital (Somnotol; MTC Pharmaceuticals, Cambridge, Ontario) intraperitoneally. Body temperature was maintained at 37° C. Aβ(25-35) (50 nmol in 10 μL of saline) was injected bilaterally into the lateral ventricles. Aβ(25-35) was prepared according to established methods (Sigurdsson, et al. (1997) supra). […] (1997) supra). […] After wound suture, all rats received […] of buprenorphine intramuscularly and were allowed to recover from surgery for 7 days. Learning and memory deficits were assessed using the Barnes circular platform. There are twenty holes evenly located along the border of circular platform with a hidden escape box beneath one of the holes. The circular platform is equipped with colored cues on the surrounding wall. A bright light combined with wind from a fan hung on the ceiling above the platform provides the incentive for the rats to find the hidden box and enter the escape hole. During each trial, the rats were initially placed in the center of the platform under an inverted box, then the box was lifted up and the rat is allowed to find the hole for up to 4 minutes. The latency (time to enter the escape hole) was recorded during the trial. There was a training period (trials 1-14) performed at day −7 to day −1 before surgery (day 0). PDTC or vehicle treatment was given 30 minutes before Aβ(25-35) injections and from days 1 to 7 post-surgery. Spatial memory was then tested on day 8 (trial 15) with the escape hole placed in the same location. Spatial learning was examined by re-testing (re-acquisition) from days 9 to 15 (trials 16-29) with the escape box relocated at […] from the original location. Digital photographs were taken using a light microscope (Leitz Diaplan). […] Also, relative optical density measurements and numbers of stained cells or accumulations were measured in entire brain areas for quantitative analysis and statistically analyzed with ANOVA and Tukey post hoc test with a significance level of P<0.05. […] The staircase data are expressed as the mean±SEM. […] Data are expressed as mean±SEM. […]

Male Wistar rats [1] = assay: Quantitative immunohistochemistry: relative optical density and numbers of stained cells or accumulations; type: in vivo, rat; details: Trifusal treatment (brackets)
Procedure: (§1) Male Wistar rats (250 to 300 grams; Charles River, Montreal, Quebec) were divided into 4 groups: intracerebroventricular injections of Aβ(25-35) (BACHEM, Torrance, Calif.); endothelin injections into the right striatum; both Aβ(25-35) and striatal endothelin injections; and sham procedures. The Aβ(25-35) fragment was used to reduce the possibility of rapid coagulation and to allow diffusion of the peptide into the brain.
(§2) All rats were anesthetized using 40 mg/kg of pentobarbital (Somnotol; MTC Pharmaceuticals, Cambridge, Ontario) intraperitoneally. Body temperature was maintained at 37° C. Aβ(25-35) (50 nmol in 10 μL of saline) was injected bilaterally into the lateral ventricles. Aβ(25-35) was prepared according to established methods (Sigurdsson, et al. (1997) supra). Aβ(25-35) (50 nmol in 10 μL of saline at a rate of 1 μL/minute) was injected bilaterally into the lateral ventricles via a stainless-steel cannula (23-gauge; anterior/posterior −0.8, medial/lateral ±1.4, and dorsal/ventral −4.0 below dura). Two endothelin injections (6 pmol in 3 μL of saline), 1 mm apart, were made into the right striatum (Sigurdsson, et al. (1997) supra). Sham procedures involved all the surgical steps without injections of Aβ(25-35) or endothelin. After wound suture, all rats received 40 mg/kg of buprenorphine intramuscularly and were allowed to recover from surgery for 7 days.
(§3) Twenty-one days after surgery, all animals were euthanized via pentobarbital overdose and perfused transaortically first with saline followed by 4% formaldehyde (pH 7.4). The brains were removed and cryoprotected in 30% sucrose for 36 hours at 4° C. Coronal sections (30 pm) were cut using a cryostat.
(§4) Free-floating sections from rat brains (n=5 for each group) were treated with 0.03% hydrogen peroxide and blocked with 3 mL of horse or rabbit serum (VECTASTAIN® Elite, Vector Laboratories, Burlingame, Calif.). The following primary antibodies were diluted in filtered phosphate-buffered saline: APPa4 mouse monoclonal (Chemicon International Inc, Temecula, Calif.; 1:1000), GFAP mouse monoclonal (Sigma-Aldrich, St Louis, Mo.; 1:1000), OX-6 mouse monoclonal (Serotec, Inc., Raleigh, N.C.; 1:1000), Tau-2 mouse monoclonal (Sigma-Aldrich, St Louis, Mo.; 1:10000), NFκB(p65) goat polyclonal (Santa Cruz Biotechnologies, Santa Cruz, Calif.; 1:1000), IL-1β goat polyclonal (Santa Cruz Biotechnologies, Santa Cruz, Calif.; 1:1000), and TNF-α-M18 goat polyclonal (Santa Cruz Biotechnologies, Santa Cruz, Calif.; 1:1000). APP-, Tau-2-, GFAP-, and OX-6-stained sections were incubated with 3 mL of horse biotinylated anti-mouse secondary antibody and horse serum. NFκB(p65), IL-1β, and TNF-α-stained sections were incubated with 3 mL of biotinylated rabbit anti-goat secondary antibody and rabbit serum. Sections were then incubated in 3 mL of avidin-biotin complex followed by 0.05% diaminobenzidine. Sections were washed, air-dried, cleared in xylene, and cover-slipped. Brains to be compared were processed at the same time using the same solutions to reduce variability in immunostaining caused by separate processing.
(§5) Digital photographs were taken using a light microscope (Leitz Diaplan). An investigator was blinded to the identification of the rat sections while analysis was being performed. All immunohistochemical data that were compared was processed at the same time to reduce any variation caused by differences of intensity. A grading scale was based on both observable size and intensity of staining (n=5 for each group). Also, relative optical density measurements and numbers of stained cells or accumulations were measured in entire brain areas for quantitative analysis and statistically analyzed with ANOVA and Tukey post hoc test with a significance level of P<0.05.

Male Wistar rats [2] = assay: Immunohistochemistry of rat brain sections, grading scale of staining size and intensity; type: in vivo; design: key to Effect of Triflusal on NKκB(p65) immunostaining / Effect of Triflusal on COX-2 immunostaining / Effect of Triflusal on GFAP immunostaining / Effect of Triflusal on OX-6 immunostaining / Effect of Triflusal on APP immunostaining / Effect of Triflusal on Tau-2 immunostaining / Effect of Triflusal on TNFα immunostaining / Effect of Triflusal on Cas-3 immunostaining: −: no effect; ↓: moderate reduction; ↓↓: strong reduction
Procedure: as §1, §2, §3, §4, §5

[3] = Left Hippocampus, Endothelin rats
[4] = Right Hippocampus, Aβ/Endo rats
[5] = Right Hippocampus, Endothelin rats
[6] = Corpus Callosum, Aβ-Endothelin rats
[7] = Hippocampus, Aβ-Endothelin rats
[8] = Hypothalamus, Aβ-Endothelin rats
[9] = Striatum (right), Aβ-Endothelin rats
[10] = Striatum (right), Endothelin rats
[11] = Thalamus (right), Aβ-Endothelin rats
[12] = Thalamus (right), Endothelin rats

S=C(S)N1CCCC1 [PDTC, pyrrolidine dithiocarbamate]
Effect on Aβ(25-35) induced increases in latency (rats; 100 mg/kg 30 minutes before Aβ(25-35) injections and 7 days post-surgery, trial 15 (day 8) vs trial 14 (day −1)): prevented the Aβ(25-35) induced increases in latency | test response (latency) vs Aβ(25-35) group with vehicle treatment (rats; Aβ(25-35) group treated with PDTC, P<0.05, not significantly different from sham groups): significantly less

CC(=O)Oc1cc(C(F)(F)F)ccc1C(=O)O [Triflusal]
APP Accumulation (Male Wistar rats [1]; Left Cortex, Aβ rats): (12.5 ± 2.6)^x | APP Accumulation (Male Wistar rats [1]; Left Cortex, Aβ/Endo rats): 64.5 ± 10.2) | APP Accumulation (Male Wistar rats [1]; Left Cortex, Endothelin rats): (7.3 ± 1.3) | APP Accumulation (Male Wistar rats [1]; Left Cortex, Sham rats): (7.3 ± 2.3) | GFAP Intensity (Male Wistar rats [1]; Left Hippocampus, Aβ rats): (166.8 ± 9.1) | OX6 Intensity (Male Wistar rats [1]; Left Hippocampus, Aβ rats): (109.8 ± 6.8)^a | GFAP Intensity (Male Wistar rats [1]; Left Hippocampus, Aβ/Endo rats): (188.9 ± 4.4) | OX6 Intensity (Male Wistar rats [1]; Left Hippocampus, Aβ/Endo rats): (149.0 ± 7.1) | GFAP Intensity (Male Wistar rats [1]; [3]): (148.8 ± 4.5) | OX6 Intensity (Male Wistar rats [1]; [3]): (106.8 ± 6.4) | GFAP Intensity (Male Wistar rats [1]; Left Hippocampus, Sham rats): (150.8 ± 5.5) | OX6 Intensity (Male Wistar rats [1]; Left Hippocampus, Sham rats): (97.9 ± 2.0) | APP Accumulation (Male Wistar rats [1]; Right Cortex, Aβ rats): (11.0 ± 2.1)^x | APP Accumulation (Male Wistar rats [1]; Right Cortex, Aβ/Endo rats): (85.8 ± 16.1) | APP Accumulation (Male Wistar rats [1]; Right Cortex, Endothelin rats): (13.3 ± 2.1) | APP Accumulation (Male Wistar rats [1]; Right Cortex, Sham rats): (5.0 ± 2.7) | GFAP Intensity (Male Wistar rats [1]; Right Hippocampus, Aβ rats): (164.2 ± 10.1) | OX6 Intensity (Male Wistar rats [1]; Right Hippocampus, Aβ rats): (110.8 ± 4.6)^x | GFAP Intensity (Male Wistar rats [1]; [4]): (188.3 ± 8.2) | OX6 Intensity (Male Wistar rats [1]; [4]): (149.4 ± 7.4)^x | GFAP Intensity (Male Wistar rats [1]; [5]): (150.1 ± 3.6)^x | OX6 Intensity (Male Wistar rats [1]; [5]): (97.3 ± 4.5)^x | GFAP Intensity (Male Wistar rats [1]; Right Hippocampus, Sham rats): (152.5 ± 7.9) | OX6 Intensity (Male Wistar rats [1]; Right Hippocampus, Sham rats): (93.4 ± 1.4) | Effect of Triflusal on APP immunostaining (Male Wistar rats [2]; Corpus Callosum, Aβ rats): ↓↓ | Effect of Triflusal on COX-2 immunostaining (Male Wistar rats [2]; Corpus Callosum, Aβ rats): ↓↓ | Effect of Triflusal on GFAP immunostaining (Male Wistar rats [2]; Corpus Callosum, Aβ rats): ↓↓ | Effect of Triflusal on NKκB(p65) immunostaining (Male Wistar rats [2]; Corpus Callosum, Aβ rats): ↓↓ | Effect of Triflusal on OX-6 immunostaining (Male Wistar rats [2]; Corpus Callosum, Aβ rats): ↓↓ | Effect of Triflusal on TNFα immunostaining (Male Wistar rats [2]; Corpus Callosum, Aβ rats): ↓↓ | Effect of Triflusal on Tau-2 immunostaining (Male Wistar rats [2]; Corpus Callosum, Aβ rats): ↓↓ | Effect of Triflusal on APP immunostaining (Male Wistar rats [2]; [6]): − | Effect of Triflusal on COX-2 immunostaining (Male Wistar rats [2]; [6]): ↓ | Effect of Triflusal on GFAP immunostaining (Male Wistar rats [2]; [6]): − | Effect of Triflusal on NKκB(p65) immunostaining (Male Wistar rats [2]; [6]): ↓ | Effect of Triflusal on OX-6 immunostaining (Male Wistar rats [2]; [6]): ↓ | Effect of Triflusal on TNFα immunostaining (Male Wistar rats [2]; [6]): − | Effect of Triflusal on Tau-2 immunostaining (Male Wistar rats [2]; [6]): − | Effect of Triflusal on GFAP immunostaining (Male Wistar rats [2]; Corpus Callosum, Endothelin rats): − | Effect of Triflusal on APP immunostaining (Male Wistar rats [2]; Cortex, Aβ rats): ↓↓ | Effect of Triflusal on COX-2 immunostaining (Male Wistar rats [2]; Cortex, Aβ rats): ↓↓ | Effect of Triflusal on GFAP immunostaining (Male Wistar rats [2]; Cortex, Aβ rats): − | Effect of Triflusal on NKκB(p65) immunostaining (Male Wistar rats [2]; Cortex, Aβ rats): ↓ | Effect of Triflusal on OX-6 immunostaining (Male Wistar rats [2]; Cortex, Aβ rats): ↓ | Effect of Triflusal on TNFα immunostaining (Male Wistar rats [2]; Cortex, Aβ rats): ↓ | Effect of Triflusal on Tau-2 immunostaining (Male Wistar rats [2]; Cortex, Aβ rats): ↓↓ | Effect of Triflusal on APP immunostaining (Male Wistar rats [2]; Cortex, Aβ-Endothelin rats): − | Effect of Triflusal on COX-2 immunostaining (Male Wistar rats [2]; Cortex, Aβ-Endothelin rats): ↓ | Effect of Triflusal on GFAP immunostaining (Male Wistar rats [2]; Cortex, Aβ-Endothelin rats): − | Effect of Triflusal on NKκB(p65) immunostaining (Male Wistar rats [2]; Cortex, Aβ-Endothelin rats): − | Effect of Triflusal on OX-6 immunostaining (Male Wistar rats [2]; Cortex, Aβ-Endothelin rats): − | Effect of Triflusal on TNFα immunostaining (Male Wistar rats [2]; Cortex, Aβ-Endothelin rats): ↓ | Effect of Triflusal on Tau-2 immunostaining (Male Wistar rats [2]; Cortex, Aβ-Endothelin rats): − | Effect of Triflusal on GFAP immunostaining (Male Wistar rats [2]; Cortex, Endothelin rats): − | Effect of Triflusal on APP immunostaining (Male Wistar rats [2]; Hippocampus, Aβ rats): ↓ | Effect of Triflusal on COX-2 immunostaining (Male Wistar rats [2]; Hippocampus, Aβ rats): ↓ | Effect of Triflusal on GFAP immunostaining (Male Wistar rats [2]; Hippocampus, Aβ rats): − | Effect of Triflusal on NKκB(p65) immunostaining (Male Wistar rats [2]; Hippocampus, Aβ rats): ↓ | Effect of Triflusal on OX-6 immunostaining (Male Wistar rats [2]; Hippocampus, Aβ rats): ↓ | Effect of Triflusal on Tau-2 immunostaining (Male Wistar rats [2]; Hippocampus, Aβ rats): ↓ | Effect of Triflusal on APP immunostaining (Male Wistar rats [2]; [7]): − | Effect of Triflusal on COX-2 immunostaining (Male Wistar rats [2]; [7]): − | Effect of Triflusal on GFAP immunostaining (Male Wistar rats [2]; [7]): − | Effect of Triflusal on NKκB(p65) immunostaining (Male Wistar rats [2]; [7]): − | Effect of Triflusal on OX-6 immunostaining (Male Wistar rats [2]; [7]): − | Effect of Triflusal on Tau-2 immunostaining (Male Wistar rats [2]; [7]): − | Effect of Triflusal on GFAP immunostaining (Male Wistar rats [2]; Hippocampus, Endothelin rats): − | Effect of Triflusal on APP immunostaining (Male Wistar rats [2]; Hypothalamus, Aβ rats): ↓ | Effect of Triflusal on NKκB(p65) immunostaining (Male Wistar rats [2]; Hypothalamus, Aβ rats): ↓↓ | Effect of Triflusal on TNFα immunostaining (Male Wistar rats [2]; Hypothalamus, Aβ rats): ↓↓ | Effect of Triflusal on APP immunostaining (Male Wistar rats [2]; [8]): − | Effect of Triflusal on NKκB(p65) immunostaining (Male Wistar rats [2]; [8]): ↓ | Effect of Triflusal on TNFα immunostaining (Male Wistar rats [2]; [8]): ↓ | Effect of Triflusal on GFAP immunostaining (Male Wistar rats [2]; Striatum (right), Aβ rats): − | Effect of Triflusal on APP immunostaining (Male Wistar rats [2]; [9]): ↓ | Effect of Triflusal on COX-2 immunostaining (Male Wistar rats [2]; [9]): ↓ | Effect of Triflusal on GFAP immunostaining (Male Wistar rats [2]; [9]): − | Effect of Triflusal on NKκB(p65) immunostaining (Male Wistar rats [2]; [9]): ↓ | Effect of Triflusal on OX-6 immunostaining (Male Wistar rats [2]; [9]): ↓ | Effect of Triflusal on TNFα immunostaining (Male Wistar rats [2]; [9]): ↓ | Effect of Triflusal on APP immunostaining (Male Wistar rats [2]; [10]): ↓↓ | Effect of Triflusal on COX-2 immunostaining (Male Wistar rats [2]; [10]): ↓↓ | Effect of Triflusal on Cas-3 immunostaining (Male Wistar rats [2]; [10]): ↓ | Effect of Triflusal on GFAP immunostaining (Male Wistar rats [2]; [10]): − | Effect of Triflusal on NKκB(p65) immunostaining (Male Wistar rats [2]; [10]): ↓ | Effect of Triflusal on OX-6 immunostaining (Male Wistar rats [2]; [10]): ↓↓ | Effect of Triflusal on TNFα immunostaining (Male Wistar rats [2]; [10]): ↓ | Effect of Triflusal on OX-6 immunostaining (Male Wistar rats [2]; Thalamus (right), Aβ rats): − | Effect of Triflusal on TNFα immunostaining (Male Wistar rats [2]; Thalamus (right), Aβ rats): − | Effect of Triflusal on OX-6 immunostaining (Male Wistar rats [2]; [11]): − | Effect of Triflusal on TNFα immunostaining (Male Wistar rats [2]; [11]): − | Effect of Triflusal on OX-6 immunostaining (Male Wistar rats [2]; [12]): − | Effect of Triflusal on TNFα immunostaining (Male Wistar rats [2]; [12]): −
